Reference: patent US4927832A, “Novel tetrahydropyridines having analgesic activity” (Roussel Uclaf, priority 1987, dated 1990)
Where a name gives a salt, the structure may show the parent alone.

Columns and labels:
K opiated receptor = target: T1, K opiated receptor (Cavia porcellus, UniProt P41144); assay: Liaison to the K opiated receptor in vitro (displacement of 3H ethylketocyclazocine); format: binding, guinea pigs; conditions: 50% inhibiting concentration (IC50), membranes from guinea pig brains, 3H ethylketocyclazocine 1 nM, 25° C. for 40 minutes
T1 construct: prepared from the brains of guinea pigs were used; from tissue; host or cells: guinea pig brain membranes
T1 sequence (P41144 whole entry): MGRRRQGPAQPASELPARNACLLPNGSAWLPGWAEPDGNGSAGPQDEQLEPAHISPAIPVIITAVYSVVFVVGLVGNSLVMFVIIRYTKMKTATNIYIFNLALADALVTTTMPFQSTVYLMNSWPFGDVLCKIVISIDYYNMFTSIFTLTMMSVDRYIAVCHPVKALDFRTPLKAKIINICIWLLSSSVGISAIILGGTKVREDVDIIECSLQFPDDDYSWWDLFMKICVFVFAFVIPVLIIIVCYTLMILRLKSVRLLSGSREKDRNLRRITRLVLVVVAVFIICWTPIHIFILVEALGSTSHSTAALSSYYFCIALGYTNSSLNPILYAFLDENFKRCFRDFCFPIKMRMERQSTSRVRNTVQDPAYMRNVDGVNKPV
Method: (1) Liaison to the K opiated receptor in vitro:
Membrane residues preserved at -30° C. (possibly up to about 30 days) and prepared from the brains of guinea pigs were used.' The residues were suspended in Tris pH 7.7 buffer and fractions of 2 ml were distributed in hemolysis tubes, 9^3 H ethylketocyclazocine 1 nM and the product under study were added. The product was first tested at 5×10^-6 M (in triplicate). When the product tested displaced the radioactivity bound specifically to the receptor by more than 50%, it was again tested according to a range of 7 doses to determine the dose which inhibits the radioactivity bound specifically to the receptor by 50%. In this way, the 50% inhibiting concentration was determined.
The non-specific liaison was determined by adding the product known as U-50488 H (Lahti et al. 1982, Life Sci. 31, 2257) at 10^-5 M in triplicate. After incubating at 25° C. for 40 minutes, returning to the water-bath at 0° C. for 5 minutes, filtering under vacuum, and rinsing with Tris pH 7.7 buffer, the radioactivity was counted in the presence of scintillating Trition. […]

[1] = tested on: Male rats of Sprague Dawley strain; assay: Measurement of diuretic activity; format: in vivo; conditions: 5 mg/kg orally, urinary volume over period t0h-t5h
Method: (3) Measurement of diuretic activity Male rats of Sprague Dawley strain weighing 180-200 g were deprived of food for 17 hours before the test, while receiving water ad libitum. Groups of 8 animals were set up for each dose tested and the rats received the product under test or its vehicle orally. The urine volume was measured every hour for the 5 hours following the administration of the product. After this period, the urines were collected and the activity of the product was expressed as a percentage of variation calculated on the urinary volume corresponding to the period tOH --[…].

male mice = assay: Analgesic activity (acetic acid stretching and twisting test); format: in vivo; conditions: administered orally 30 minutes before intraperitoneal acetic acid
Method: This test was based on the observation of Koster et al (Fed. Proc. 1959, 1B, 412) that the intraperitioneal injection of acetic acid causes repeated movements of stretching and twisting in rodents which can be considered as manifestations of a diffuse abdominal pain because they ae attenuated by analgesics. The acetic acid was injected at a […] male mice of average weight of […]. The product under study was administered orally 30 minutes before the injection of the acetic acid to groups of 10 animals, each trial including a control group which receives the vehicle. Five minutes after the injection of the irritant, the stretchings and twistings were counted for each animal for a period of 15 minutes. The analgesic effect of each dose of product studied was expressed as a percentage of protection in relation to the average number of movements observed in the controls receiving acetic acid alone. The DA50 or dose necessary to reduce the number of stretchings by 50% was calculated according to the method of least squares. The DA50 values obtained with the products of Example 1 and 3 were respectively 2.5 and 5 mg/kg.

rat = assay: Anti-arrhythmic activity in the rat (aconitine perfusion); format: in vivo; conditions: 5 minutes before aconitine perfusion, compared with controls
Method: (2) Anti-arrhythmic activity in the rat
Male rats weighing 300-350 g, anesthesized intra-peritoneally with 1.20 g/kg of urethane, were tracheotomised and submitted to artifical respiration (40-50 insufflations of 3 ml/minute). Needles were implanted sub-cutaneously to record the electrocardiogram of the rats on the DII derivation signal and the products under test were administered intravenously. Five minutes after administering the product, the jugular vein of the rats was perfused with 10 μg/mn from 0.2 ml of an aconitine solution and the time of appearance of disturbances of the cardiac rhythm was noted. The results were expressed as percentage of extension of the time of appearance of the cardiac rhythm disturbances as compared with controls and as a function of the dose of the product tested.

SMILES | IC50 (K opiated receptor) [nM] | Percentage of variation of the urine volume [1] | DA50 or dose necessary to reduce the number of stretchings by 50% (male mice; 30 min) [mg/kg] | Percentage of extension of the time of appearance of the cardiac rhythm disturbances (rat; dose 1 mg/kg intravenously) | Percentage of extension of the time of appearance of the cardiac rhythm disturbances (rat; dose 2.5 mg/kg intravenously) | ED50 (male mice; Mus musculus, po, 0.5 h, read-out: DA50 or dose necessary to reduce the number of stretchings by 50%) [mg/kg]
O=C(Cc1ccc(Cl)c(Cl)c1)N1CCCC2CCC(N3CCCC3)C21 (stereo not drawn) [Example 3, [4aRS (4aα, 7aβ)] (35) 1-[(3.4-dichlorophenyl)acetyl]octahydro-7-(1-pyrrolidinyl)-1H-1-pyrindine hydrochloride (isomer trans I).] | 9 | +57% | 5 | – | – | –
O=C(Cc1ccc(Cl)c(Cl)c1)N1CCCC2CCC(N3CCCC3)C21 (mixture of isomers) [Example 1, [4aRS (4a-α, 7a-α)](±)1-[(3,4-dichlorophenyl)-acetyl]-octahydro-7-(1-pyrrolidinyl)-1H-1-pyrindine hydrochloride (isomer cis I)] | 4 | +85% | – | +26% | +35% | 2.5
O=C(Cc1ccc(Cl)c(Cl)c1)N1CCC[C@@H]2CCCC[C@H](N3CCCC3)[C@@H]21 (relative stereo) [Example 4, [4a-α, 9-β, 9a-α] (±) decahydro-1-([3,4-dichlorophenyl)-acetyl]-9-(1-pyrrolidinyl)-1H-cyclohepta[b]pyridine hydrochloride] | – | – | – | +37% | +65% | –
